Source: the NIST ThermoML archive (doi:10.1021/je400055v)

Test: xn = mol fraction of the nth substance listed
Conditions: Liquid, Vibrating tube method

CCCCCCCCCCC [undecane] + CCCCCCC
Conditions	mass density [kg/m3]
352.96 K, 20000 kPa, x2 = 0.05	712.1
352.96 K, 20000 kPa, x2 = 0.5063	690.9
352.96 K, 21000 kPa, x2 = 0.05	712.9
352.96 K, 21001 kPa, x2 = 0.5063	691.8
352.96 K, 22001 kPa, x2 = 0.05	713.8
352.96 K, 22050 kPa, x2 = 0.5063	692.7
352.96 K, 23000 kPa, x2 = 0.05	714.6
352.96 K, 23000 kPa, x2 = 0.5063	693.6
352.96 K, 24000 kPa, x2 = 0.05	715.4
352.96 K, 24000 kPa, x2 = 0.5063	694.5
352.96 K, 25000 kPa, x2 = 0.05	716.2
352.96 K, 25000 kPa, x2 = 0.5063	695.3
352.97 K, 1000 kPa, x2 = 0.7482	654
352.97 K, 2000 kPa, x2 = 0.7482	655.3
352.97 K, 3000 kPa, x2 = 0.7482	656.6
352.97 K, 4000 kPa, x2 = 0.7482	657.8
352.97 K, 5000 kPa, x2 = 0.7482	659.1
352.97 K, 6000 kPa, x2 = 0.7482	660.3
352.97 K, 7000 kPa, x2 = 0.7482	661.5
352.97 K, 8000 kPa, x2 = 0.7482	662.7
352.97 K, 9000 kPa, x2 = 0.7482	663.9
352.97 K, 10000 kPa, x2 = 0.7482	665
352.97 K, 11000 kPa, x2 = 0.7482	666.1
352.97 K, 12000 kPa, x2 = 0.7482	667.2
352.97 K, 13000 kPa, x2 = 0.7482	668.3
352.97 K, 14000 kPa, x2 = 0.7482	669.4
352.97 K, 15000 kPa, x2 = 0.7482	670.5
352.97 K, 16000 kPa, x2 = 0.7482	671.5
352.97 K, 17000 kPa, x2 = 0.7482	672.5
352.97 K, 18000 kPa, x2 = 0.7482	673.5
352.97 K, 19000 kPa, x2 = 0.7482	674.5
352.97 K, 20000 kPa, x2 = 0.7482	675.5
352.97 K, 21000 kPa, x2 = 0.7482	676.5
352.97 K, 22000 kPa, x2 = 0.7482	677.4
352.97 K, 23000 kPa, x2 = 0.7482	678.3
352.97 K, 24000 kPa, x2 = 0.7482	679.2
352.97 K, 25000 kPa, x2 = 0.7482	680.2
352.99 K, 1015 kPa, x2 = 0.2346	685.9
352.99 K, 2016 kPa, x2 = 0.2346	687
352.99 K, 3016 kPa, x2 = 0.2346	688.1
352.99 K, 4017 kPa, x2 = 0.2346	689.2
352.99 K, 5018 kPa, x2 = 0.2346	690.2
352.99 K, 6019 kPa, x2 = 0.2346	691.3
352.99 K, 7020 kPa, x2 = 0.2346	692.3
352.99 K, 8020 kPa, x2 = 0.2346	693.3
352.99 K, 9021 kPa, x2 = 0.2346	694.4
352.99 K, 10022 kPa, x2 = 0.2346	695.3
352.99 K, 11022 kPa, x2 = 0.2346	696.3
352.99 K, 12023 kPa, x2 = 0.2346	697.3
352.99 K, 13024 kPa, x2 = 0.2346	698.2
352.99 K, 14025 kPa, x2 = 0.2346	699.2
352.99 K, 15026 kPa, x2 = 0.2346	700.1
352.99 K, 16027 kPa, x2 = 0.2346	701
352.99 K, 17028 kPa, x2 = 0.2346	701.9
352.99 K, 18030 kPa, x2 = 0.2346	702.8
352.99 K, 19030 kPa, x2 = 0.2346	703.7
352.99 K, 20031 kPa, x2 = 0.2346	704.5
352.99 K, 21066 kPa, x2 = 0.2346	705.4
352.99 K, 22068 kPa, x2 = 0.2346	706.3
352.99 K, 23071 kPa, x2 = 0.2346	707.1
352.99 K, 24073 kPa, x2 = 0.2346	707.9
352.99 K, 25076 kPa, x2 = 0.2346	708.7
362.87 K, 1001 kPa, x2 = 0.9511	628.1
362.87 K, 2000 kPa, x2 = 0.9511	629.7
362.87 K, 3000 kPa, x2 = 0.9511	631.1
362.87 K, 4000 kPa, x2 = 0.9511	632.6
362.87 K, 5000 kPa, x2 = 0.9511	634
362.87 K, 6000 kPa, x2 = 0.9511	635.4
362.87 K, 7000 kPa, x2 = 0.9511	636.8
362.87 K, 8000 kPa, x2 = 0.9511	638.2
362.87 K, 9000 kPa, x2 = 0.9511	639.5
362.87 K, 10000 kPa, x2 = 0.9511	640.8
362.87 K, 11000 kPa, x2 = 0.9511	642.1
362.87 K, 12000 kPa, x2 = 0.9511	643.4
362.87 K, 13000 kPa, x2 = 0.9511	644.6
362.87 K, 14001 kPa, x2 = 0.9511	645.8
362.87 K, 15001 kPa, x2 = 0.9511	647
362.87 K, 16000 kPa, x2 = 0.9511	648.2
362.87 K, 17001 kPa, x2 = 0.9511	649.3
362.87 K, 18001 kPa, x2 = 0.9511	650.5
362.87 K, 19000 kPa, x2 = 0.9511	651.6
362.87 K, 20000 kPa, x2 = 0.9511	652.7
362.87 K, 21001 kPa, x2 = 0.9511	653.8
362.87 K, 22000 kPa, x2 = 0.9511	654.9
362.87 K, 23001 kPa, x2 = 0.9511	655.9
362.87 K, 24000 kPa, x2 = 0.9511	656.9
362.87 K, 25000 kPa, x2 = 0.9511	658
362.91 K, 1000 kPa, x2 = 0.7482	645.5
362.91 K, 1023 kPa, x2 = 0.2346	678.2
362.91 K, 2000 kPa, x2 = 0.7482	646.9
362.91 K, 2024 kPa, x2 = 0.2346	679.4
362.91 K, 3000 kPa, x2 = 0.7482	648.3
362.91 K, 3026 kPa, x2 = 0.2346	680.6
362.91 K, 4000 kPa, x2 = 0.7482	649.6
362.91 K, 4027 kPa, x2 = 0.2346	681.7
362.91 K, 5000 kPa, x2 = 0.7482	650.9
362.91 K, 5028 kPa, x2 = 0.2346	682.8
362.91 K, 6000 kPa, x2 = 0.7482	652.2
362.91 K, 6029 kPa, x2 = 0.2346	683.9
362.91 K, 7000 kPa, x2 = 0.7482	653.5
362.91 K, 7031 kPa, x2 = 0.2346	685
362.91 K, 8000 kPa, x2 = 0.7482	654.7
362.91 K, 8032 kPa, x2 = 0.2346	686.1
362.91 K, 9000 kPa, x2 = 0.7482	656
362.91 K, 9033 kPa, x2 = 0.2346	687.1
362.91 K, 10000 kPa, x2 = 0.7482	657.2
362.91 K, 10035 kPa, x2 = 0.2346	688.2
362.91 K, 11000 kPa, x2 = 0.7482	658.4
362.91 K, 11036 kPa, x2 = 0.2346	689.2
362.91 K, 12000 kPa, x2 = 0.7482	659.5
362.91 K, 12037 kPa, x2 = 0.2346	690.2
362.91 K, 13000 kPa, x2 = 0.7482	660.7
362.91 K, 13038 kPa, x2 = 0.2346	691.2
362.91 K, 14000 kPa, x2 = 0.7482	661.8
362.91 K, 14040 kPa, x2 = 0.2346	692.2
362.91 K, 15000 kPa, x2 = 0.7482	662.9
362.91 K, 15041 kPa, x2 = 0.2346	693.2
362.91 K, 16000 kPa, x2 = 0.7482	664
362.91 K, 16043 kPa, x2 = 0.2346	694.1
362.91 K, 17000 kPa, x2 = 0.7482	665.1
362.91 K, 17044 kPa, x2 = 0.2346	695.1
362.91 K, 18000 kPa, x2 = 0.7482	666.2
362.91 K, 18046 kPa, x2 = 0.2346	696
362.91 K, 19000 kPa, x2 = 0.7482	667.2
362.91 K, 19047 kPa, x2 = 0.2346	696.9
362.91 K, 20000 kPa, x2 = 0.7482	668.3
362.91 K, 20049 kPa, x2 = 0.2346	697.8
362.91 K, 21000 kPa, x2 = 0.7482	669.3
362.91 K, 21083 kPa, x2 = 0.2346	698.8
362.91 K, 22000 kPa, x2 = 0.7482	670.3
362.91 K, 22086 kPa, x2 = 0.2346	699.6
362.91 K, 23000 kPa, x2 = 0.7482	671.3
362.91 K, 23089 kPa, x2 = 0.2346	700.5
362.91 K, 24000 kPa, x2 = 0.7482	672.2
362.91 K, 24092 kPa, x2 = 0.2346	701.4
362.91 K, 25000 kPa, x2 = 0.7482	673.2
362.91 K, 25095 kPa, x2 = 0.2346	702.2
362.92 K, 1001 kPa, x2 = 0.05	686.5
362.92 K, 2001 kPa, x2 = 0.05	687.6
362.92 K, 3000 kPa, x2 = 0.05	688.7
362.92 K, 4000 kPa, x2 = 0.05	689.8
362.92 K, 5000 kPa, x2 = 0.05	690.9
362.92 K, 6000 kPa, x2 = 0.05	692
362.92 K, 7000 kPa, x2 = 0.05	693
362.92 K, 8001 kPa, x2 = 0.05	694.1
362.92 K, 9000 kPa, x2 = 0.05	695.1
362.92 K, 10000 kPa, x2 = 0.05	696.1
362.92 K, 11000 kPa, x2 = 0.05	697.1
362.92 K, 12000 kPa, x2 = 0.05	698.1
362.92 K, 13000 kPa, x2 = 0.05	699.1
362.92 K, 14000 kPa, x2 = 0.05	700
362.92 K, 15000 kPa, x2 = 0.05	701
362.92 K, 16000 kPa, x2 = 0.05	701.9
362.92 K, 17000 kPa, x2 = 0.05	702.8
362.92 K, 18000 kPa, x2 = 0.05	703.7
362.92 K, 19000 kPa, x2 = 0.05	704.6
362.92 K, 20000 kPa, x2 = 0.05	705.5
362.92 K, 21000 kPa, x2 = 0.05	706.4
362.92 K, 22001 kPa, x2 = 0.05	707.3
362.92 K, 23000 kPa, x2 = 0.05	708.1
362.92 K, 24000 kPa, x2 = 0.05	708.9
362.92 K, 25000 kPa, x2 = 0.05	709.8
362.94 K, 2001 kPa, x2 = 0.5063	664.4
362.94 K, 3000 kPa, x2 = 0.5063	665.6
362.94 K, 4000 kPa, x2 = 0.5063	666.8
362.94 K, 5000 kPa, x2 = 0.5063	668
362.94 K, 6000 kPa, x2 = 0.5063	669.2
362.94 K, 7000 kPa, x2 = 0.5063	670.4
362.94 K, 8001 kPa, x2 = 0.5063	671.5
362.94 K, 9000 kPa, x2 = 0.5063	672.6
362.94 K, 10000 kPa, x2 = 0.5063	673.8
362.94 K, 11000 kPa, x2 = 0.5063	674.8
362.94 K, 12000 kPa, x2 = 0.5063	675.9
362.94 K, 13000 kPa, x2 = 0.5063	677
362.94 K, 14000 kPa, x2 = 0.5063	678
362.94 K, 15000 kPa, x2 = 0.5063	679.1
362.94 K, 16000 kPa, x2 = 0.5063	680.1
362.94 K, 17001 kPa, x2 = 0.5063	681.1
362.94 K, 18000 kPa, x2 = 0.5063	682.1
362.94 K, 19000 kPa, x2 = 0.5063	683.1
362.94 K, 20000 kPa, x2 = 0.5063	684
362.94 K, 21001 kPa, x2 = 0.5063	685
362.94 K, 22050 kPa, x2 = 0.5063	685.9
362.94 K, 23000 kPa, x2 = 0.5063	686.9
362.94 K, 24000 kPa, x2 = 0.5063	687.8
362.94 K, 25000 kPa, x2 = 0.5063	688.7
